The nature of data set [1]: Cytotoxicity against African monkey Vero cells. Format: cell-based. As to conditions: chlorocebus sabaeus.
A short description of data set [2]: Selectivity index, ratio of CC50 for African monkey Vero cells to EC50 for Zaire ebolavirus. Format: toxicity, cell-based. The following applies: read-out: Ratio CC50/EC50.
The test system of the next data set is Hepatitis C virus. Nature of the data set: Antiviral activity against Hepatitis C virus. Format: functional, organism-based. The following applies: Hepacivirus hominis.
The subject of a further data set is Tacaribe virus. Nature of the data set: Antiviral activity against Tacaribe virus. As to conditions: Mammarenavirus tacaribeense. Format: functional, organism-based.
The subject of data set [3] is Ebolavirus. Description: Antiviral activity against Zaire ebolavirus infected in African monkey Vero cells. Format: functional, cell-based. As to conditions: Orthoebolavirus.
For another data set, the system named is Rift Valley fever virus. Nature of the data set: Antiviral activity against Rift Valley fever virus. Format: functional, organism-based.
The next data set has as its system Norovirus. Description: Antiviral activity against Norovirus. Format: functional.
For data set [4], the system named is Japanese encephalitis virus. Nature of the data set: Antiviral activity against Japanese encephalitis virus. Format: functional, organism-based.
A further data set has as its system Human betaherpesvirus 5. Description: Antiviral activity against Human cytomegalovirus. Format: functional, organism-based.
A further data set relates to Nipah virus. Nature of the data set: Antiviral activity against Nipah virus. Format: functional, organism-based. As to conditions: Henipavirus nipahense.
For a further data set, the system named is Hepatitis B virus. Nature of the data set: Antiviral activity against Hepatitis B virus. Format: functional, organism-based.
For a further data set, the system named is Yellow fever virus. Nature of the data set: Antiviral activity against Yellow fever virus. Format: functional, organism-based.
Another data set relates to Measles morbillivirus. Nature of the data set: Antiviral activity against Measles virus. Format: functional, organism-based.
The subject of a further data set is Chikungunya virus. Nature of the data set: Antiviral activity against Chikungunya virus. Format: functional.
A further data set deals with Dengue virus. Description: Antiviral activity against Dengue virus. Format: functional, organism-based.
Data set [5] concerns Ebolavirus. Description: Antiviral activity against Zaire ebolavirus infected in human HepG2 cells. Format: functional, cell-based. The following applies: Orthoebolavirus.
Another data set deals with West Nile virus. Nature of the data set: Antiviral activity against West Nile virus. Format: functional, organism-based.
In the next data set the test system is Monkeypox virus. Nature of the data set: Antiviral activity against Monkeypox virus. Format: functional, organism-based.
For another data set, the system named is Lyssavirus rabies. Nature of the data set: Antiviral activity against Rabies virus. Format: functional.
Data set [6] deals with Venezuelan equine encephalitis virus. Description: Antiviral activity against Venezuelan equine encephalitis virus. Format: functional, organism-based.
Another data set has as its system Vaccinia virus. Nature of the data set: Antiviral activity against Vaccinia virus. The following applies: Orthopoxvirus vaccinia. Format: functional, organism-based.
Another data set has as its system Enterovirus C. Description: Antiviral activity against Poliovirus. Format: functional, organism-based.
The next data set concerns Punta Toro virus. Nature of the data set: Antiviral activity against Punta Toro virus. Format: functional, organism-based.
Data set [7] can be described thus: Cytotoxicity against human HepG2 cells. Format: cell-based.
A short description of data set [8]: Selectivity index, ratio of CC50 for human HepG2 cells to EC50 for Zaire ebolavirus. The following applies: read-out: Ratio CC50/EC50. Format: toxicity, cell-based.

The source made the active and inactive calls. The calls are words filed in the database; no cut-off is given here.

The term CC50 denotes the concentration giving 50% cytotoxicity. In general, EC50 refers to the concentration needed to bring the measured effect to its halfway point. `Nc1ncc(Br)c2c1ncn2C1=C[C@@H](CO)[C@H](O)[C@@H]1O` returned a CC50 in [1] of more than 100 µM. Further, in data set [2], the selectivity ratio was more than 28.5. For the same molecule, the outcome (in the data set on Hepatitis C virus; in the data set on Tacaribe virus; in the data set with Rift Valley fever virus; in data set [4]; in the data set on Nipah virus; with Yellow fever virus) was inactive. The outcome in the data set with Chikungunya virus and in the data set with Dengue virus was inactive. The 50% effective concentration (EC50) was 3.51 µM in the data set on Ebolavirus [3]; 1300 nM in the data set on Norovirus; less than 100 nM in the data set with Human betaherpesvirus 5; 3.25 µM in the data set on Hepatitis B virus; less than 290 nM in the data set on Measles morbillivirus.

As a reminder, the EC90 is the concentration at which the effect reaches the 90% level. With `Nc1nccc2c1ncn2C1=C[C@@H](CO)[C@H](O)[C@@H]1O`, the concentration for a half-maximal effect (EC50) in the data set with Ebolavirus [5] is less than 320 nM; in the data set on Human betaherpesvirus 5, less than 100 nM. This molecule had an EC90 in the data set on Ebolavirus [5] of less than 0.32 µM. The result (with West Nile virus; in the data set on Monkeypox virus; in the data set on Lyssavirus rabies; in data set [6]; in the data set on Vaccinia virus; with Enterovirus C) was inactive. Moreover, the result in the data set on Punta Toro virus and in the data set on Measles morbillivirus was inactive. The CC50 in data set [7] was more than 100 µM.

As to `Nc1nccc2c1ncn2C1=C[C@H](CO)[C@@H](O)[C@H]1O`, the EC50 in the data set with Ebolavirus [5] is less than 320 nM; with Human betaherpesvirus 5, less than 100 nM; with Measles morbillivirus it was less than 380 nM. This molecule also yielded an EC90 in the data set with Ebolavirus [5] of 74.1 µM. Moreover, the outcome (in the data set on West Nile virus; with Monkeypox virus; in the data set on Lyssavirus rabies; in data set [6]; in the data set with Vaccinia virus; in the data set with Enterovirus C) was inactive. For the same molecule, the outcome with Punta Toro virus was inactive. Besides, in [7], the CC50 is more than 100 µM.

In turn, `Nc1ncc(Br)c2c1ncn2C1=C[C@H](CO)[C@@H](O)[C@H]1O` showed a CC50 in [1] of more than 100 µM. For the same molecule, the selectivity ratio in [2] was more than 1000. Besides, the result (in the data set with Hepatitis C virus; in the data set with Tacaribe virus; in the data set with Rift Valley fever virus; in data set [4]; in the data set on Nipah virus; in the data set on Yellow fever virus) was inactive. The outcome in the data set with Chikungunya virus and with Dengue virus was inactive. The EC50 in the data set on Ebolavirus [3] was less than 0.1 µM; in the data set on Human betaherpesvirus 5 it was less than 100 nM; in the data set on Measles morbillivirus, less than 290 nM.

In the data set on Ebolavirus [5], `Nc1ncc(Br)c2c1ncn2[C@@H]1C=C(CO)[C@@H](O)[C@H]1O` showed a concentration giving a half-maximal response (EC50) of less than 320 nM and a concentration for an effect of 90% (EC90) of 3.02 µM. The selectivity ratio in data set [8] was more than 67. The CC50 in data set [7] turned out to be 21.1 µM.

The values above are taken from ChEMBL document CHEMBL3751697, “Enantiomeric 3-deaza-1',6'-isoneplanocin and its 3-bromo analogue: Synthesis by the Ullmann reaction and their antiviral properties” (Bioorg Med Chem Lett, 2016).
